Data on 16 molecules can be found in BindingDB's records for doi:10.1016/j.bmcl.2004.06.092 (Merck Research Laboratories, 2004).

For experiment [1], the target named is T1, Dimer of Gag-Pol polyprotein [489-587,Q496K] (Human immunodeficiency virus 1, UniProt P12497, Q496K).
T1 construct: 489-587
As to the kind of experiment: Protease Inhibition Assay. The conditions noted are these: pH 5.5; 30 °C. On the procedure: (§1) Assay of HIV protease inhibition was performed by peptide cleavage using the substrate Val-Ser-Gln-Asn-beta-naphthylalanine*Pro-Ile-Val. Products of the cleavage reaction were quantified by HPLC detection, and data were fit to nonlinear least squares equations for determination of steady-state Michaelis-Menten kinetics.

The target in experiment [2] is T2, Dimer of Gag-Pol polyprotein [489-587,Q496K,L499I,M525I,N526D,M535I,R546K,L552P,A560V,G562S,I573V,L579M,I582L] (Human immunodeficiency virus 1, UniProt P12497, A560V/G562S/I573V/I582L/L499I/L552P/L579M/M525I/M535I/N526D/Q496K/R546K).
T2 construct: 489-587
As to the kind of experiment: Protease Inhibition Assay. On the procedure:
as §1

With `O=C(N[C@H]1c2ccccc2OC[C@H]1O)[C@H](Cc1nnc(-c2ccccc2)o1)C[C@H](O)CN1CCN(Cc2ccc(-c3ccc(Cl)cc3)o2)C[C@H]1C(=O)NCC(F)(F)F` [(2S)-4-{[5-(4-chlorophenyl)furan-2-yl]methyl}-1-[(2S,4S)-2-hydroxy-4-{[(3S,4S)-3-hydroxy-3,4-dihydro-2H-1-benzopyran-4-yl]carbamoyl}-4-[(5-phenyl-1,3,4-oxadiazol-2-yl)methyl]butyl]-N-(2,2,2-trifluoroethyl)piperazine-2-carboxamide], the midpoint of inhibition in experiment [1], the IC50, lay at 0.019 nM.

As for `COc1cncc(-c2cnc(C(C)(C)N3CCN(C[C@@H](O)C[C@@H](Cc4nnc(C)o4)C(=O)N[C@H]4c5ccccc5OC[C@H]4O)[C@H](C(=O)NCC(F)(F)F)C3)o2)c1` [(2S)-1-[(2S,4S)-2-hydroxy-4-{[(3S,4S)-3-hydroxy-3,4-dihydro-2H-1-benzopyran-4-yl]carbamoyl}-4-[(5-methyl-1,3,4-oxadiazol-2-yl)methyl]butyl]-4-{2-[5-(5-methoxypyridin-3-yl)-1,3-oxazol-2-yl]propan-2-yl}-N-(2,2,2-trifluoroethyl)piperazine-2-carboxamide], the IC50 in experiment [2] turned out to be 15 nM; in experiment [1], 0.4 nM. In experiment [1], `CCCc1nnc(C[C@H](C[C@H](O)CN2CCN(C(C)(C)c3ncc(-c4cncc(OC)c4)o3)C[C@H]2C(=O)NCC(F)(F)F)C(=O)N[C@H]2c3ccccc3OC[C@H]2O)o1` [(2S)-1-[(2S,4S)-2-hydroxy-4-{[(3S,4S)-3-hydroxy-3,4-dihydro-2H-1-benzopyran-4-yl]carbamoyl}-4-[(5-propyl-1,3,4-oxadiazol-2-yl)methyl]butyl]-4-{2-[5-(5-methoxypyridin-3-yl)-1,3-oxazol-2-yl]propan-2-yl}-N-(2,2,2-trifluoroethyl)piperazine-2-carboxamide] yielded an IC50 of 0.32 nM.

The molecule `Cc1nnc(C[C@H](C[C@H](O)CN2CCN(Cc3ccc(-c4ccc(Cl)cc4)o3)C[C@H]2C(=O)NCC(F)(F)F)C(=O)N[C@H]2c3ccccc3OC[C@H]2O)o1` [(2S)-4-{[5-(4-chlorophenyl)furan-2-yl]methyl}-1-[(2S,4S)-2-hydroxy-4-{[(3S,4S)-3-hydroxy-3,4-dihydro-2H-1-benzopyran-4-yl]carbamoyl}-4-[(5-methyl-1,3,4-oxadiazol-2-yl)methyl]butyl]-N-(2,2,2-trifluoroethyl)piperazine-2-carboxamide] yielded an IC50 in experiment [1] of less than 0.015 nM. On to `CC(C)(c1ncc(-c2ccc(Cl)cc2)o1)N1CCN(C[C@@H](O)C[C@@H](Cc2nnco2)C(=O)N[C@H]2c3ccccc3OC[C@H]2O)[C@H](C(=O)NCC(F)(F)F)C1` [(2S)-4-{2-[5-(4-chlorophenyl)-1,3-oxazol-2-yl]propan-2-yl}-1-[(2S,4S)-2-hydroxy-4-{[(3S,4S)-3-hydroxy-3,4-dihydro-2H-1-benzopyran-4-yl]carbamoyl}-4-(1,3,4-oxadiazol-2-ylmethyl)butyl]-N-(2,2,2-trifluoroethyl)piperazine-2-carboxamide], for which the results for the IC50 in experiment [2] and in experiment [1] were 0.043 nM and less than 0.015 nM, respectively.

As to `CCCc1nnc(C[C@H](C[C@H](O)CN2CCN(C(C)(C)c3ncc(-c4ccc(F)cc4)o3)C[C@H]2C(=O)NCC(F)(F)F)C(=O)N[C@H]2c3ccccc3OC[C@H]2O)o1` [(2S)-4-{2-[5-(4-fluorophenyl)-1,3-oxazol-2-yl]propan-2-yl}-1-[(2S,4S)-2-hydroxy-4-{[(3S,4S)-3-hydroxy-3,4-dihydro-2H-1-benzopyran-4-yl]carbamoyl}-4-[(5-propyl-1,3,4-oxadiazol-2-yl)methyl]butyl]-N-(2,2,2-trifluoroethyl)piperazine-2-carboxamide], the IC50 turned out to be 0.19 nM in experiment [2] and 0.016 nM in experiment [1]. In the case of `O=C(N[C@H]1c2ccccc2OC[C@H]1O)[C@H](Cc1nnco1)C[C@H](O)CN1CCN(Cc2ccc(-c3ccc(Cl)cc3)o2)C[C@H]1C(=O)NCC(F)(F)F` [(2S)-4-{[5-(4-chlorophenyl)furan-2-yl]methyl}-1-[(2S,4S)-2-hydroxy-4-{[(3S,4S)-3-hydroxy-3,4-dihydro-2H-1-benzopyran-4-yl]carbamoyl}-4-(1,3,4-oxadiazol-2-ylmethyl)butyl]-N-(2,2,2-trifluoroethyl)piperazine-2-carboxamide], the IC50 in experiment [2] was found to be 0.099 nM; in experiment [1], 0.015 nM. Consider `CCCc1nnc(C[C@H](C[C@H](O)CN2CCN(C(C)(C)c3ncc(-c4ccc(Cl)cc4)o3)C[C@H]2C(=O)NCC(F)(F)F)C(=O)N[C@H]2c3ccccc3OC[C@H]2O)o1` [(2S)-4-{2-[5-(4-chlorophenyl)-1,3-oxazol-2-yl]propan-2-yl}-1-[(2S,4S)-2-hydroxy-4-{[(3S,4S)-3-hydroxy-3,4-dihydro-2H-1-benzopyran-4-yl]carbamoyl}-4-[(5-propyl-1,3,4-oxadiazol-2-yl)methyl]butyl]-N-(2,2,2-trifluoroethyl)piperazine-2-carboxamide], for which the IC50 in experiment [2] was 0.12 nM; in experiment [1], less than 0.015 nM. Taken in the same sequence, the figures for `Cc1nnc(C[C@H](C[C@H](O)CN2CCN(C(C)(C)c3ncc(-c4ccc(Cl)cc4)o3)C[C@H]2C(=O)NCC(F)(F)F)C(=O)N[C@H]2c3ccccc3OC[C@H]2O)o1` [(2S)-4-{2-[5-(4-chlorophenyl)-1,3-oxazol-2-yl]propan-2-yl}-1-[(2S,4S)-2-hydroxy-4-{[(3S,4S)-3-hydroxy-3,4-dihydro-2H-1-benzopyran-4-yl]carbamoyl}-4-[(5-methyl-1,3,4-oxadiazol-2-yl)methyl]butyl]-N-(2,2,2-trifluoroethyl)piperazine-2-carboxamide] were 0.06 nM and 0.016 nM. As to `CC(C)(c1ncc(-c2ccc(Cl)cc2)o1)N1CCN(C[C@@H](O)C[C@@H](Cc2nnc(-c3ccccc3)o2)C(=O)N[C@H]2c3ccccc3OC[C@H]2O)[C@H](C(=O)NCC(F)(F)F)C1` [(2S)-4-{2-[5-(4-chlorophenyl)-1,3-oxazol-2-yl]propan-2-yl}-1-[(2S,4S)-2-hydroxy-4-{[(3S,4S)-3-hydroxy-3,4-dihydro-2H-1-benzopyran-4-yl]carbamoyl}-4-[(5-phenyl-1,3,4-oxadiazol-2-yl)methyl]butyl]-N-(2,2,2-trifluoroethyl)piperazine-2-carboxamide], the IC50 is 0.18 nM in experiment [2] and less than 0.015 nM in experiment [1]. Taken in the same sequence, the figures for `COc1cncc(-c2cnc(C(C)(C)N3CCN(C[C@@H](O)C[C@@H](Cc4nnco4)C(=O)N[C@H]4c5ccccc5OC[C@H]4O)[C@H](C(=O)NCC(F)(F)F)C3)o2)c1` [(2S)-1-[(2S,4S)-2-hydroxy-4-{[(3S,4S)-3-hydroxy-3,4-dihydro-2H-1-benzopyran-4-yl]carbamoyl}-4-(1,3,4-oxadiazol-2-ylmethyl)butyl]-4-{2-[5-(5-methoxypyridin-3-yl)-1,3-oxazol-2-yl]propan-2-yl}-N-(2,2,2-trifluoroethyl)piperazine-2-carboxamide] were 7.4 nM and 0.24 nM. The molecule `CC(C)(c1ncc(-c2ccc(F)cc2)o1)N1CCN(C[C@@H](O)C[C@@H](Cc2nnc(-c3ccccc3)o2)C(=O)N[C@H]2c3ccccc3OC[C@H]2O)[C@H](C(=O)NCC(F)(F)F)C1` [(2S)-4-{2-[5-(4-fluorophenyl)-1,3-oxazol-2-yl]propan-2-yl}-1-[(2S,4S)-2-hydroxy-4-{[(3S,4S)-3-hydroxy-3,4-dihydro-2H-1-benzopyran-4-yl]carbamoyl}-4-[(5-phenyl-1,3,4-oxadiazol-2-yl)methyl]butyl]-N-(2,2,2-trifluoroethyl)piperazine-2-carboxamide] had an IC50 in experiment [1] of 0.02 nM. For the molecule `COc1cncc(-c2cnc(C(C)(C)N3CCN(C[C@@H](O)C[C@@H](Cc4nnc(-c5ccccc5)o4)C(=O)N[C@H]4c5ccccc5OC[C@H]4O)[C@H](C(=O)NCC(F)(F)F)C3)o2)c1` [(2S)-1-[(2S,4S)-2-hydroxy-4-{[(3S,4S)-3-hydroxy-3,4-dihydro-2H-1-benzopyran-4-yl]carbamoyl}-4-[(5-phenyl-1,3,4-oxadiazol-2-yl)methyl]butyl]-4-{2-[5-(5-methoxypyridin-3-yl)-1,3-oxazol-2-yl]propan-2-yl}-N-(2,2,2-trifluoroethyl)piperazine-2-carboxamide], in experiment [1], it took 0.48 nM to reach half-maximal inhibition (IC50). On to `Cc1nnc(C[C@H](C[C@H](O)CN2CCN(C(C)(C)c3ncc(-c4ccc(F)cc4)o3)C[C@H]2C(=O)NCC(F)(F)F)C(=O)N[C@H]2c3ccccc3OC[C@H]2O)o1` [(2S)-4-{2-[5-(4-fluorophenyl)-1,3-oxazol-2-yl]propan-2-yl}-1-[(2S,4S)-2-hydroxy-4-{[(3S,4S)-3-hydroxy-3,4-dihydro-2H-1-benzopyran-4-yl]carbamoyl}-4-[(5-methyl-1,3,4-oxadiazol-2-yl)methyl]butyl]-N-(2,2,2-trifluoroethyl)piperazine-2-carboxamide], for which the IC50 in experiment [2] was 0.19 nM; in experiment [1], 0.027 nM. `CCCc1nnc(C[C@H](C[C@H](O)CN2CCN(Cc3ccc(-c4ccc(Cl)cc4)o3)C[C@H]2C(=O)NCC(F)(F)F)C(=O)N[C@H]2c3ccccc3OC[C@H]2O)o1` [(2S)-4-{[5-(4-chlorophenyl)furan-2-yl]methyl}-1-[(2S,4S)-2-hydroxy-4-{[(3S,4S)-3-hydroxy-3,4-dihydro-2H-1-benzopyran-4-yl]carbamoyl}-4-[(5-propyl-1,3,4-oxadiazol-2-yl)methyl]butyl]-N-(2,2,2-trifluoroethyl)piperazine-2-carboxamide]: in experiment [1], the IC50 is less than 0.015 nM. As for `CC(C)(c1ncc(-c2ccc(F)cc2)o1)N1CCN(C[C@@H](O)C[C@@H](Cc2nnco2)C(=O)N[C@H]2c3ccccc3OC[C@H]2O)[C@H](C(=O)NCC(F)(F)F)C1` [(2S)-4-{2-[5-(4-fluorophenyl)-1,3-oxazol-2-yl]propan-2-yl}-1-[(2S,4S)-2-hydroxy-4-{[(3S,4S)-3-hydroxy-3,4-dihydro-2H-1-benzopyran-4-yl]carbamoyl}-4-(1,3,4-oxadiazol-2-ylmethyl)butyl]-N-(2,2,2-trifluoroethyl)piperazine-2-carboxamide], the figures for the IC50 in experiment [2] and in experiment [1] were 0.065 nM and 0.024 nM, respectively.
